Experimental data as given in US5063152A, “Synthetic peptidic substrate for determination of trypsin and α1” (Nitto Boseki Co., Ltd., priority 1985, dated 1991).
Values joined by “and” are separate entries in the source; they are usually repeats but may differ in a detail not shown here. Equal entries are not always repeated. Square brackets hold non-standard residues; d marks the D form. Peptide text beside a SMILES is read from it. * marks the point of attachment. pNA = O=[N+]([O-])c1ccc(N*)cc1; Cbz = O=C(OCc1ccccc1)*

Columns and labels:
[1] = biological target: T1, Factor Xa (FXa) (Bos taurus, UniProt P00743); assay: substrate specificity test, reaction with factor Xa; format: biochemical, Bovine; details: for measured optical density (absorbance), factor Xa: initial substrate concentration 2 mmol/l, 37° C., 5 minutes; for relative reactivity of substrate with factor Xa: reactivity of PS-1188N taken as 100, initial substrate concentration 2 mmol; for relative reactivity in the case of factor Xa: Table 1, PS-1188N = 100
T1 construct: Factor Xa; purchased Sigma Chem. Co
Method: (§1) The synthetic peptides obtained in Examples 1 and 2 were subjected to a substrate specificity test by reacting with various enzymes under the following conditions.
(§2) 1) substrate solution: 10 mmol/l (concentration)
(§3) 2) buffer solution: tris-HCl buffer
(§4) Concentrations of NaCl, and CaCl2 and pH (at 25° C.) were adjusted as shown in Table 2 depending on enzymes to be reacted: […]
(§5) 4) Reaction stopper solution in the case of pNA: 10% acetic acid
(§6) 5) Color producing reagent for CHA: sodium pentacyanoamine ferroate
(§7) The buffer solution in an amount of 0.3 ml and 0.1 ml of an enzyme solution were placed in a test tube made of hard glass treated with silicon or a test tube made of a plastic (polystyrene) and preheated for 5 minutes in a constant temperature bath maintained at 37° C. Then, 0.1 ml of a substrate solution was added to the test tube and incubated at 37° C. for just 5 minutes. Subsequently, 2.0 ml of the reaction stopper solution (in the case of pNA) or the color producing reagent (in the case of CHA) was added to the reaction solution to terminate the enzymatic reaction. After allowing to stand at 37° C. for 10 minutes, absorbance (optical density) at 405 nm (in the case of pNA) or at 700 nm (in the case of coupled CHA) was measured. The initial substrate concentration was 2 mmol/l.

[2] = biological target: T2, Thrombin (TH) (Bos taurus, UniProt P00735); assay: substrate specificity test, reaction with thrombin; format: biochemical, Bovine; details: for measured optical density (absorbance), thrombin: initial substrate concentration 2 mmol/l, 37° C., 5 minutes; for relative reactivity of substrate with thrombin: reactivity of PS-1188N taken as 100, initial substrate concentration 2 mmol; for relative reactivity in the case of thrombin: Table 1, PS-1188N = 100
T2 construct: Thrombin; purchased Mochida Pharmaceutical Co., Ltd
Method: as §1, §2, §3, §4, §5, §6, §7

[3] = biological target: T3, Kallikrein (KL) (Sus scrofa, UniProt P00752); assay: substrate specificity test, reaction with kallikrein; format: biochemical, Porcine; details: for measured optical density (absorbance), kallikrein: initial substrate concentration 2 mmol/l, 37° C., 5 minutes; for relative reactivity of substrate with kallikrein: reactivity of PS-1188N taken as 100, initial substrate concentration 2 mmol; for relative reactivity in the case of kallikrein: Table 1, PS-1188N = 100
T3 construct: purchased Sigma Chem. Co
Method: as §1, §2, §3, §4, §5, §6, §7

[4] = biological target: T4, Urokinase (UK) (Homo sapiens, UniProt P00749); assay: substrate specificity test, reaction with urokinase; format: biochemical; details: initial substrate concentration 2 mmol/l, 37° C., 5 minutes
T4 construct: purchased Mochida Pharmaceutical Co., Ltd
Method: as §1, §2, §3, §4, §5, §6, §7

[5] = biological target: T5, Plasmin (PL) (Homo sapiens, UniProt P00747); assay: substrate specificity test, reaction with plasmin; format: biochemical; details: for measured optical density (absorbance), plasmin: initial substrate concentration 2 mmol/l, 37° C., 5 minutes; for relative reactivity of substrate with plasmin: reactivity of PS-1188N taken as 100, initial substrate concentration 2 mmol; for relative reactivity in the case of plasmin: Table 1, PS-1188N = 100
T5 construct: Plasmin Human; purchased Green Cross Corp
Method: as §1, §2, §3, §4, §5, §6, §7

[6] = biological target: T6, Trypsin (Try) (Bos taurus, UniProt P00760); assay: substrate specificity test, reaction with trypsin; format: biochemical, Bovine; details: for measured optical density (absorbance), trypsin: initial substrate concentration 2 mmol/l, 37° C., 5 minutes; for relative reactivity of substrate with trypsin: reactivity of PS-1188N taken as 100, initial substrate concentration 2 mmol
T6 construct: purchased Worthington
T6 sequence (P00760 24-246): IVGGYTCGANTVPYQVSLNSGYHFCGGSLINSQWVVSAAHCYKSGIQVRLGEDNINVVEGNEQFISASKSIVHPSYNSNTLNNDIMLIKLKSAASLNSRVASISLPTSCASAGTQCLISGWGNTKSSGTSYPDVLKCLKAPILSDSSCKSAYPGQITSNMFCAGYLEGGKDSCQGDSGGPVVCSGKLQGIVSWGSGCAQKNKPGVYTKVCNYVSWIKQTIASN
Method: as §1, §2, §3, §4, §5, §6, §7

T3 sequence (P00752 8-246): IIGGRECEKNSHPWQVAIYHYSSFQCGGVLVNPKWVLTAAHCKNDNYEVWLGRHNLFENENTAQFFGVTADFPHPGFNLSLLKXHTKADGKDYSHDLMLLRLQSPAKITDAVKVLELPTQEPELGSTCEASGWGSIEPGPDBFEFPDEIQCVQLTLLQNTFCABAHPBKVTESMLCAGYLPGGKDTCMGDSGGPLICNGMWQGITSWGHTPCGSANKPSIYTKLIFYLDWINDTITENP
T5 sequence (P00747 581-810 limits assumed): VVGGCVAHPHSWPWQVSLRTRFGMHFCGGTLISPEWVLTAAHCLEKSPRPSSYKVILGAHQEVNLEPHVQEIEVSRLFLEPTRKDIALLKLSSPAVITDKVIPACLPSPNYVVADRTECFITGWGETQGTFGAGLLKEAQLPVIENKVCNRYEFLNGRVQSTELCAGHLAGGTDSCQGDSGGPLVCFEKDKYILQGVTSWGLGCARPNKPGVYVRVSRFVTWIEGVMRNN
T5 sequence (P00747 97-580 partner limits assumed): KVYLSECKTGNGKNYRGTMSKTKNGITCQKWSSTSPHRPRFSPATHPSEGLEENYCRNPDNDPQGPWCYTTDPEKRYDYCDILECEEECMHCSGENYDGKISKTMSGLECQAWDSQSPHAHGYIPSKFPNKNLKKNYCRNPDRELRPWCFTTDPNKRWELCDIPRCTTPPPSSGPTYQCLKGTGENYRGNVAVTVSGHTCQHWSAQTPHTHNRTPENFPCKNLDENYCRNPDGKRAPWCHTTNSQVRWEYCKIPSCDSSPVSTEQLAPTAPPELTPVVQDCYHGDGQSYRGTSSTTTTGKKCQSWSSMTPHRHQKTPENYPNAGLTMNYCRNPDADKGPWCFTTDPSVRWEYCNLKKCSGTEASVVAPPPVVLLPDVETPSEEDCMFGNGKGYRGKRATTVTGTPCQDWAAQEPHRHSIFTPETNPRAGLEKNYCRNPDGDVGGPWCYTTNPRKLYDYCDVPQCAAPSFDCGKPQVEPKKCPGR
T1 sequence (P00743 234-492 limits assumed): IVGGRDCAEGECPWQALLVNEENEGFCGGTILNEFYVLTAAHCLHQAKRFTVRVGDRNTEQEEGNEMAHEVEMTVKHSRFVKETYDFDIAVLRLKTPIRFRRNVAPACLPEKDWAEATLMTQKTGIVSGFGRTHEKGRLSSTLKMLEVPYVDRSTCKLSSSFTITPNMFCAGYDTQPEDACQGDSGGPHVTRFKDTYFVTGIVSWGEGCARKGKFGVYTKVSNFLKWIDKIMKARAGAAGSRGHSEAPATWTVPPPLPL
T1 sequence (P00743 41-180 partner limits assumed): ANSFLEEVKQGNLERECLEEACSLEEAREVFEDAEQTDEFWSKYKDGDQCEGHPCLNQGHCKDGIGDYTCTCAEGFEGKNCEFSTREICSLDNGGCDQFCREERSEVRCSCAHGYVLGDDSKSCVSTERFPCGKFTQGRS

Compound | measured optical density (absorbance), factor Xa ([1]; 405 nm (pNA)) | relative reactivity of substrate with factor Xa [1] | measured optical density (absorbance), thrombin ([2]; 405 nm (pNA)) | relative reactivity of substrate with thrombin [2] | measured optical density (absorbance), kallikrein ([3]; 405 nm (pNA)) | relative reactivity of substrate with kallikrein [3] | measured optical density (absorbance), urokinase ([4]; 405 nm (pNA)) | measured optical density (absorbance), plasmin ([5]; 405 nm (pNA)) | relative reactivity of substrate with plasmin [5] | measured optical density (absorbance), trypsin ([6]; 405 nm (pNA)) | relative reactivity of substrate with trypsin [6] | relative reactivity in the case of factor Xa [1] | relative reactivity in the case of thrombin [2] | relative reactivity in the case of kallikrein [3] | relative reactivity in the case of plasmin [5] | also measured
CC(C)C[C@H](NC(=O)[C@H]1CCCN1)C(=O)N[C@@H](CCCCN)C(=O)Nc1ccc([N+](=O)[O-])cc1 [PS-1188N, H-D -Pro-Leu-Lys-pNA] (H-[dP]-Leu-Lys-pNA) | 0.007 | 100 | 0.003 | 100 | 0.032 and 0.039 | 100 | 0.0 | 0.134 | 100 | 0.160 | 100 |  |  |  |  | 
CC(C)C[C@H](NC(=O)[C@H]1CCCN1)C(=O)N[C@@H](CCCCN)C(=O)Nc1ccc(O)c(C(=O)O)c1 [PS-1188, H-D -Pro-Leu-Lys-CHA] |  | 37 |  | 0 |  | 2 |  |  | 3 |  | 86 | 37% | 0% | 2% | 3% | measured optical density (absorbance), factor Xa ([1]; 700 nm (coupled CHA)): 0.006; measured optical density (absorbance), thrombin ([2]; 700 nm (coupled CHA)): 0.0; measured optical density (absorbance), kallikrein ([3]; 700 nm (coupled CHA)): 0.002; measured optical density (absorbance), urokinase ([4]; 700 nm (coupled CHA)): 0.001; measured optical density (absorbance), plasmin ([5]; 700 nm (coupled CHA)): 0.008; measured optical density (absorbance), trypsin ([6]; 700 nm (coupled CHA)): 0.314
CC(C)[C@H](NC(=O)OCc1ccccc1)C(=O)NCC(=O)N[C@@H](CCCNC(=N)N)C(=O)Nc1ccc([N+](=O)[O-])cc1 [CHR-TRY, Z-Val-Gly-Arg-pNA] (Cbz-Val-Gly-Arg-pNA) | 0.148 | 2114 | 0.066 | 2200 | 0.029 | 74 | 0.112 | 0.057 | 43 | 2.601 | 1626 | 2114% | 2200% | 74% | 43% | 
